ChEMBL document CHEMBL1201861, “Genomics of Drug Sensitity in Cancer screening data, Wellcome Trust Sanger Institute”

Tests used:
Experiment in all cases: cells
[1] = system: RCM-1; type: functional, cell-based; conditions: Homo sapiens;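 note: growth inhibition of the RCM-1 line, determined with a cell viability readout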
Description: SANGER: Inhibition of human RCM-1 cell growth in a cell viability assay.

[2] = system: COLO-679; type: functional, cell-based; conditions: Homo sapiens
Description: SANGER: Inhibition of human COLO-679 cell growth in a cell viability assay.

[3] = system: T98G; type: functional, cell-based; conditions: Homo sapiens;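 note: growth inhibition of T98G cells, read out by a cell viability assay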
Description: SANGER: Inhibition of human T98G cell growth in a cell viability assay.

[4] = system: NCI-H661; type: functional, cell-based; conditions: Homo sapiens;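 note: cell viability assay read-out, IC50 being the concentration that inhibits growth of the cells by half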
Description: SANGER: Inhibition of human NCI-H661 cell growth in a cell viability assay.

[5] = system: DOK; type: functional, cell-based; conditions: Homo sapiens;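 note: cell viability assay read-out, values reflect inhibition of cell growth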
Description: SANGER: Inhibition of human DOK cell growth in a cell viability assay.

[6] = system: 8505C; type: functional, cell-based; conditions: Homo sapiens
Description: SANGER: Inhibition of human 8505C cell growth in a cell viability assay.

[7] = system: AGS; type: functional, cell-based; conditions: Homo sapiens;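 note: growth inhibition of AGS cells, determined with a cell viability assay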
Description: SANGER: Inhibition of human AGS cell growth in a cell viability assay.

[8] = system: SW1990; type: functional, cell-based; conditions: Homo sapiens;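 note: cell growth inhibition determined with a viability assay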
Description: SANGER: Inhibition of human SW1990 cell growth in a cell viability assay.

[9] = system: NCI-H1703; type: functional, cell-based; conditions: Homo sapiens;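 note: growth inhibition of NCI-H1703 cells, read out via a cell viability assay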
Description: SANGER: Inhibition of human NCI-H1703 cell growth in a cell viability assay.

[10] = system: NCI-H460; type: functional, cell-based; conditions: Homo sapiens;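 note: cell viability assay scoring growth inhibition of human NCI-H460 cells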
Description: SANGER: Inhibition of human NCI-H460 cell growth in a cell viability assay.

[11] = system: DoTc2-4510; type: functional, cell-based; conditions: Homo sapiens
[12] = system: MeWo; type: functional, cell-based; conditions: Homo sapiens;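 note: growth inhibition of MeWo cells, determined by a cell viability readout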
Description: SANGER: Inhibition of human Mewo cell growth in a cell viability assay.

[13] = system: WM-115; type: functional, cell-based; conditions: Homo sapiens
Description: SANGER: Inhibition of human WM-115 cell growth in a cell viability assay.

[14] = system: JEG-3; type: functional, cell-based; conditions: Homo sapiens;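 note: growth inhibition of human JEG-3 cells, read out with a cell viability assay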
Description: SANGER: Inhibition of human JEG-3 cell growth in a cell viability assay.

[15] = system: SW1417; type: functional, cell-based; conditions: Homo sapiens;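 note: growth inhibition of human SW1417 cells, read out with a cell viability assay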
Description: SANGER: Inhibition of human SW1417 cell growth in a cell viability assay.

[16] = system: MDA-MB-453; type: functional, cell-based; conditions: Homo sapiens
Description: SANGER: Inhibition of human MDA-MB-453 cell growth in a cell viability assay.

[17] = system: NY; type: functional, cell-based; conditions: Homo sapiens
Description: SANGER: Inhibition of human NY cell growth in a cell viability assay.

[18] = system: NCI-H1993; type: functional, cell-based; conditions: Homo sapiens;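 note: growth inhibition of the cancer cell line, assessed with a cell viability assay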
Description: SANGER: Inhibition of human NCI-H1993 cell growth in a cell viability assay.

[19] = system: MFH-ino; type: functional, cell-based, Homo sapiens; conditions: Homo sapiens, MFH-ino;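 note: growth inhibition of human MFH-ino cells, read out by a cell viability assay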
Description: SANGER: Inhibition of human MFH-ino cell growth in a cell viability assay.

[20] = system: A-427; type: functional, cell-based; conditions: Homo sapiens;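 note: growth inhibition of human A-427 cells, read out by a cell viability assay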
Description: SANGER: Inhibition of human A427 cell growth in a cell viability assay.

[21] = system: NCI-H2087; type: functional, cell-based; conditions: Homo sapiens;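 note: growth inhibition determined with a cell viability readout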
Description: SANGER: Inhibition of human NCI-H2087 cell growth in a cell viability assay.

[22] = system: HSC-2; type: functional, cell-based; conditions: Homo sapiens;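 note: growth inhibition of human HSC-2 cells, read out by a cell viability assay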
Description: SANGER: Inhibition of human HSC-2 cell growth in a cell viability assay.

[23] = system: U-118-MG; type: functional, cell-based; conditions: Homo sapiens
Description: SANGER: Inhibition of human U-118-MG cell growth in a cell viability assay.

[24] = system: HCC1395; type: functional, cell-based; conditions: Homo sapiens;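 note: growth inhibition of HCC1395 cells, read out by a cell viability assay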
Description: SANGER: Inhibition of human HCC1395 cell growth in a cell viability assay.

[25] = system: Ca9-22; type: functional, cell-based; conditions: Homo sapiens;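 note: growth inhibition of Ca9-22 cells, read out with a cell viability assay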
Description: SANGER: Inhibition of human Ca9-22 cell growth in a cell viability assay.

[26] = system: SK-MEL3; type: functional, cell-based, SK-MEL-3; conditions: Homo sapiens;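 note: growth inhibition of human SK-MEL-3 cells, read out with a cell viability assay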
Description: SANGER: Inhibition of human SK-MEL-3 cell growth in a cell viability assay.

[27] = system: SW-620; type: functional, cell-based; conditions: Homo sapiens;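 note: growth inhibition of human SW-620 cells, measured by a cell viability assay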
Description: SANGER: Inhibition of human SW620 cell growth in a cell viability assay.

[28] = system: NCI-H520; type: functional, cell-based; conditions: Homo sapiens;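 note: growth inhibition of NCI-H520 cells, measured by a cell viability assay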
Description: SANGER: Inhibition of human NCI-H520 cell growth in a cell viability assay.

[29] = system: COLO-792; type: functional, cell-based; conditions: Homo sapiens
Description: SANGER: Inhibition of human COLO-792 cell growth in a cell viability assay.

[30] = system: SK-N-AS; type: functional, cell-based; conditions: Homo sapiens;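 note: growth inhibition of human SK-N-AS cells, measured with a cell viability assay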
Description: SANGER: Inhibition of human SK-N-AS cell growth in a cell viability assay.

[31] = system: HSC-3; type: functional, cell-based; conditions: Homo sapiens
Description: SANGER: Inhibition of human HSC-3 cell growth in a cell viability assay.

[32] = system: HCC1937; type: functional, cell-based; conditions: Homo sapiens;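 note: growth inhibition measured with a cell viability read-out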
Description: SANGER: Inhibition of human HCC1937 cell growth in a cell viability assay.

[33] = system: IGR-1; type: functional, cell-based; conditions: Homo sapiens;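 note: growth inhibition of human IGR-1 cells, read out with a cell viability assay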
Description: SANGER: Inhibition of human IGR-1 cell growth in a cell viability assay.

[34] = system: NCI-H1693; type: functional, cell-based; conditions: Homo sapiens;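 note: growth inhibition of the human cell line, read out with a cell viability assay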
Description: SANGER: Inhibition of human NCI-H1693 cell growth in a cell viability assay.

[35] = system: COLO-678; type: functional, cell-based; conditions: Homo sapiens
Description: SANGER: Inhibition of human COLO-678 cell growth in a cell viability assay.

[36] = system: SW1710; type: functional, cell-based; conditions: Homo sapiens;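 note: growth inhibition of SW1710 cells, determined with a cell viability assay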
Description: SANGER: Inhibition of human SW1710 cell growth in a cell viability assay.

[37] = system: NCI-H1651; type: functional, cell-based; conditions: Homo sapiens;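 note: Read-out is a cell viability assay, with IC50 expressing inhibition of NCI-H1651 cell growth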
Description: SANGER: Inhibition of human NCI-H1651 cell growth in a cell viability assay.

[38] = system: AN3-CA; type: functional, cell-based; conditions: Homo sapiens;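 note: growth inhibition of human AN3-CA cells measured by a cell viability assay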
Description: SANGER: Inhibition of human AN3-CA cell growth in a cell viability assay.

[39] = system: COLO-680N; type: functional, cell-based; conditions: Homo sapiens;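 note: cell viability assay used to measure inhibition of COLO-680N cell growth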
Description: SANGER: Inhibition of human COLO-680N cell growth in a cell viability assay.

[40] = system: MKN-1; type: functional, cell-based; conditions: Homo sapiens;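 note: growth inhibition of human MKN1 cells, read out by a cell viability measurement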
Description: SANGER: Inhibition of human MKN1 cell growth in a cell viability assay.

[41] = system: G-401; type: functional, cell-based; conditions: Homo sapiens
Description: SANGER: Inhibition of human G-401 cell growth in a cell viability assay.

[42] = system: KYSE-150 cell line; type: functional, cell-based; conditions: Homo sapiens;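 note: growth inhibition of human KYSE-150 cells, read out with a cell viability assay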
Description: SANGER: Inhibition of human KYSE-150 cell growth in a cell viability assay.

[43] = system: 647-V; type: functional, cell-based; conditions: Homo sapiens;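 note: growth inhibition of 647-V cells, read out with a cell viability assay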
Description: SANGER: Inhibition of human 647-V cell growth in a cell viability assay.

[44] = system: HMV-2 cell line; type: functional, cell-based; conditions: Homo sapiens;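 note: growth inhibition of HMV-II cells, read out with a cell viability assay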
Description: SANGER: Inhibition of human HMV-II cell growth in a cell viability assay.

[45] = system: HT-29; type: functional, cell-based; conditions: Homo sapiens;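 note: growth inhibition of human HT-29 cells, read out by a cell viability assay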
Description: SANGER: Inhibition of human HT-29 cell growth in a cell viability assay.

Structure (SMILES): NC(=O)Nc1cc(-c2cccc(F)c2)sc1C(=O)N[C@H]1CCCNC1 [AZD-7762]
- IC50 [1]: 0.993 µM
- IC50 [2]: 0.0909 µM
- IC50 [3]: 0.246 µM
- IC50 [4]: 0.637 µM
- IC50 [5]: > 2 µM
- IC50 [6]: 0.35 µM
- IC50 [7]: 0.582 µM
- IC50 [8]: 0.384 µM
- IC50 [9]: 0.00643 µM
- IC50 [10]: 1.53 µM
- IC50 [11]: 0.782 µM
- IC50 [12]: 0.304 µM
- IC50 [13]: > 2 µM
- IC50 [14]: > 2 µM
- IC50 [15]: 0.736 µM
- IC50 [16]: > 2 µM
- IC50 [17]: > 2 µM
- IC50 [18]: > 2 µM
- IC50 [19]: > 2 µM
- IC50 [20]: 0.198 µM
- IC50 [21]: > 2 µM
- IC50 [22]: 0.873 µM
- IC50 [23]: > 2 µM
- IC50 [24]: 0.271 µM
- IC50 [25]: 0.541 µM
- IC50 [26]: > 2 µM
- IC50 [27]: 0.662 µM
- IC50 [28]: 1.38 µM
- IC50 [29]: > 2 µM
- IC50 [30]: 0.188 µM
- IC50 [31]: 0.486 µM
- IC50 [32]: 0.706 µM
- IC50 [33]: > 2 µM
- IC50 [34]: 1.23 µM
- IC50 [35]: > 2 µM
- IC50 [36]: 0.64 µM
- IC50 [37]: 1.09 µM
- IC50 [38]: 0.837 µM
- IC50 [39]: > 2 µM
- IC50 [40]: 0.35 µM
- IC50 [41]: > 2 µM
- IC50 [42]: > 2 µM
- IC50 [43]: 0.618 µM
- IC50 [44]: > 2 µM
- IC50 [45]: 0.894 µM

Structure (SMILES): CN(NC(=O)CC(=O)NN(C)C(=S)c1ccccc1)C(=S)c1ccccc1 [ELESCLOMOL]
- IC50 [1]: > 0.2 µM
- IC50 [2]: 0.0141 µM
- IC50 [3]: 0.0343 µM
- IC50 [4]: 0.0125 µM
- IC50 [5]: 0.0179 µM
- IC50 [6]: 0.0105 µM
- IC50 [7]: 0.00286 µM
- IC50 [8]: 0.00432 µM
- IC50 [9]: 0.00368 µM
- IC50 [10]: > 0.2 µM
- IC50 [11]: > 0.2 µM
- IC50 [12]: 0.0263 µM
- IC50 [13]: 0.034 µM
- IC50 [14]: 0.00884 µM
- IC50 [15]: > 0.2 µM
- IC50 [16]: 0.0347 µM
- IC50 [17]: 0.0376 µM
- IC50 [18]: > 0.2 µM
- IC50 [19]: > 0.2 µM
- IC50 [20]: 0.00607 µM
- IC50 [21]: > 0.2 µM
- IC50 [22]: 0.107 µM
- IC50 [23]: > 0.2 µM
- IC50 [24]: 0.00847 µM
- IC50 [25]: 0.00425 µM
- IC50 [26]: > 0.2 µM
- IC50 [27]: 0.0407 µM
- IC50 [28]: 0.135 µM
- IC50 [29]: 0.0288 µM
- IC50 [30]: 0.03 µM
- IC50 [31]: 0.00302 µM
- IC50 [32]: 0.0352 µM
- IC50 [33]: > 0.2 µM
- IC50 [34]: 0.00909 µM
- IC50 [35]: 0.0425 µM
- IC50 [36]: 0.00516 µM
- IC50 [37]: 0.0829 µM
- IC50 [38]: 0.0108 µM
- IC50 [39]: 0.187 µM
- IC50 [40]: 0.026 µM
- IC50 [41]: 0.00543 µM
- IC50 [42]: 0.095 µM
- IC50 [43]: 0.0069 µM
- IC50 [44]: > 0.2 µM
- IC50 [45]: > 0.2 µM

Structure (SMILES): CC1=C(/C=C/C(C)=C/C=C/C(C)=C/C(=O)O)C(C)(C)CCC1 [TRETINOIN]
- IC50 [1]: > 10 µM
- IC50 [2]: > 10 µM
- IC50 [3]: > 10 µM
- IC50 [4]: > 10 µM
- IC50 [5]: > 10 µM
- IC50 [6]: > 10 µM
- IC50 [7]: > 10 µM
- IC50 [8]: > 10 µM
- IC50 [9]: > 10 µM
- IC50 [10]: > 10 µM
- IC50 [11]: > 10 µM
- IC50 [12]: > 10 µM
- IC50 [13]: > 10 µM
- IC50 [14]: > 10 µM
- IC50 [15]: > 10 µM
- IC50 [16]: > 10 µM
- IC50 [17]: > 10 µM
- IC50 [18]: > 10 µM
- IC50 [19]: > 10 µM
- IC50 [20]: > 10 µM
- IC50 [21]: > 10 µM
- IC50 [22]: > 10 µM
- IC50 [23]: > 10 µM
- IC50 [24]: > 10 µM
- IC50 [25]: > 10 µM
- IC50 [26]: > 10 µM
- IC50 [27]: > 10 µM
- IC50 [28]: > 10 µM
- IC50 [29]: > 10 µM
- IC50 [30]: > 10 µM
- IC50 [31]: > 10 µM
- IC50 [32]: > 10 µM
- IC50 [33]: > 10 µM
- IC50 [34]: > 10 µM
- IC50 [35]: > 10 µM
- IC50 [36]: > 10 µM
- IC50 [37]: > 10 µM
- IC50 [38]: > 10 µM
- IC50 [39]: > 10 µM
- IC50 [40]: > 10 µM
- IC50 [41]: > 10 µM
- IC50 [42]: > 10 µM
- IC50 [43]: > 10 µM
- IC50 [44]: > 10 µM
- IC50 [45]: > 10 µM

Structure (SMILES): NC(=O)c1ccc(N(C(N)=O)c2c(F)cccc2F)nc1-c1ccc(F)cc1F [VX-702]
- IC50 [1]: > 2 µM
- IC50 [2]: > 2 µM
- IC50 [3]: > 2 µM
- IC50 [4]: > 2 µM
- IC50 [5]: > 2 µM
- IC50 [6]: > 2 µM
- IC50 [7]: 0.153 µM
- IC50 [8]: > 2 µM
- IC50 [9]: > 2 µM
- IC50 [10]: > 2 µM
- IC50 [11]: > 2 µM
- IC50 [12]: > 2 µM
- IC50 [13]: > 2 µM
- IC50 [14]: > 2 µM
- IC50 [15]: > 2 µM
- IC50 [16]: > 2 µM
- IC50 [17]: > 2 µM
- IC50 [18]: > 2 µM
- IC50 [19]: > 2 µM
- IC50 [20]: > 2 µM
- IC50 [21]: > 2 µM
- IC50 [22]: > 2 µM
- IC50 [23]: > 2 µM
- IC50 [24]: > 2 µM
- IC50 [25]: > 2 µM
- IC50 [26]: > 2 µM
- IC50 [27]: > 2 µM
- IC50 [28]: > 2 µM
- IC50 [29]: > 2 µM
- IC50 [30]: > 2 µM
- IC50 [31]: > 2 µM
- IC50 [32]: > 2 µM
- IC50 [33]: > 2 µM
- IC50 [34]: > 2 µM
- IC50 [35]: > 2 µM
- IC50 [36]: > 2 µM
- IC50 [37]: > 2 µM
- IC50 [38]: > 2 µM
- IC50 [39]: > 2 µM
- IC50 [40]: > 2 µM
- IC50 [41]: > 2 µM
- IC50 [42]: > 2 µM
- IC50 [43]: > 2 µM
- IC50 [44]: 1.77 µM
- IC50 [45]: > 2 µM
